Here are results for 26 compounds from US20230031406A1, “COMPOUNDS AND COMPOSITIONS FOR TREATING CONDITIONS ASSOCIATED WITH NLRP ACTIVITY” (Novartis AG, priority 2018, published 2023).

For the experiment, the system named is PMA-differentiated THP-1 cells. Nature of the experiment: IL-1β production in PMA-differentiated THP-1 cells stimulated with gramicidin (hTHP-1 assay containing 2% fetal bovine serum; Procedures 1 and 2). It is filed as cell-based, human. The note with it: 2% fetal bovine serum. In a few lines:
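PMA 20 ng/ml 16-18 h → trypsinise → 50,000 cells/well, RPMI/2% FBS; cpd 1 h (11-pt, 100–0.0017 μM; DMSO 0.37%); gramicidin 5 μM, 2 h; spin; supernatant IL-1β via HTRF.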

Setting [1] is: Table B3, hTHP-1 assay, class symbols, read-out: IC50.
Setting [2] is: Table B2, class symbols, read-out: hTHP-1 IC50.
The mark [3] stands for this setting: Homo sapiens, THP-1, Table B2, class symbols, read-out: hTHP-1 IC50.
[4] abbreviates: Homo sapiens, THP-1, Table B1, class symbols, read-out: Average IC50 of compounds in hTHP-1 assay: hTHP-1 IC50.
[5] abbreviates: Homo sapiens, THP-1, Table B3, hTHP-1 assay, class symbols, read-out: IC50.
The mark [6] stands for this setting: Homo sapiens, THP-1, Table B2, numeric bounds, read-out: hTHP-1 IC50.
[7] abbreviates: Table B1, class symbols, read-out: Average IC50 of compounds in hTHP-1 assay: hTHP-1 IC50.

Where two headings read alike, the source gives them in different places.

As to `CC(C)(O)c1ncc(S(N)(=O)=NC(=O)Nc2cc(-c3ccccc3)nc3c2CCC3)s1` (single isomer, unassigned) [Compound 142a, (R) or (S)-2-(2-hydroxy-propan-2-yl)-N′-((2-phenyl-6,7-dihydro-5H-cyclopenta[b]pyridin-4-yl)carbamoyl)thiazole-5-sulfonimidamide], where the note is “Homo sapiens, THP-1, Table B1, numeric bounds, read-out: Average IC50 of compounds in hTHP-1 assay: hTHP-1 IC50”, the IC50 is above 30000 nM. On to `CCn1cc(F)c(S(N)(=O)=NC(=O)Nc2c3c(nc4c2CC[C@H]4C)CCC3)n1` (single isomer, unassigned) [Example 669, (R) or (S)-1-ethyl-4-fluoro-N′-(((R)-3-methyl-1,2,3,5,6,7-hexahydrodicyclopenta[b,e]pyridin-8-yl)carbamoyl)-1H-pyrazole-3-sulfonimidamide], for which the half-inhibitory concentration (IC50) under setting [1] fell in the range of 8 to 40 nM.

In the case of `Cc1c(C(C)C)nc2c(c1NC(=O)N=S(N)(=O)c1cc(C(C)(C)O)cs1)CCC2` (single isomer, unassigned) [Compound 681b, (R) or (S)-4-(2-Hydroxypropan-2-yl)-N′-((2-isopropyl-3-methyl-6,7-dihydro-5H-cyclopenta[b]pyridin-4-yl)carbamoyl) thiophene-2-sulfonimidamide], the IC50 under setting [2] was in the range of 200 to 1000 nM. `CC(C)(O)c1cnc(S(N)(=O)=NC(=O)Nc2c3c(nc4c2CCC4(C)C)CCC3)s1` (centres unmarked) [Compound 686, N′-((3,3-dimethyl-1,2,3,5,6,7-hexahydrodicyclopenta[b,e]pyridin-8-yl)carbamoyl)-5-(2-hydroxypropan-2-yl)thiazole-2-sulfonimidamide]: under setting [3], the IC50 is 200 to 1000 nM. For the compound `Cc1c(C2CC2)nc2c(c1NC(=O)N=S(N)(=O)c1cc(C(C)(C)O)cs1)CCC2` (centres unmarked) [Compound 175, N′-((2-cyclopropyl-3-methyl-6,7-dihydro-5H-cyclopenta[b]pyridin-4-yl)carbamoyl)-4-(2-hydroxypropan-2-yl)thiophene-2-sulfonimidamide], the IC50 under setting [4] was in the range of 200 to 1000 nM. On the same count and under the same terms, the value for `CC(C)c1ncc(F)c(C(C)C)c1NC(=O)N=S(N)(=O)c1nc(C(C)(C)O)cs1` (centres unmarked) [Compound 163, N′-((5-fluoro-2,4-diisopropylpyridin-3-yl)carbamoyl)-4-(2-hydroxypropan-2-yl)thiazole-2-sulfonimidamide] was 200 to 1000 nM. Take `NS(=O)(=NC(=O)Nc1c2c(nc3c1CCC31CC1)CCC2)c1nn(C(F)F)cc1F` (centres unmarked) [Example 569, 1-(Difluoromethyl)-4-fluoro-N′-((1′,5′,6′,7′-tetrahydro-2′H-spiro[cyclopropane-1,3′-dicyclopenta[b,e]pyridin]-8′-yl)carbamoyl)-1H-pyrazole-3-sulfonimidamide]: under setting [5], the IC50 was 200 to 1000 nM. The same measure, in the same setting: for `CC(O)c1csc([S@](N)(=O)=NC(=O)Nc2c3c(nc4c2CC[C@H]4C)CCC3)c1` (stereo partly drawn) [Example 582, (R)-4-(1-hydroxyethyl)-N′-(((R)-3-methyl-1,2,3,5,6,7-hexahydrodicyclopenta[b,e]pyridin-8-yl)carbamoyl)thiophene-2-sulfonimidamide] the value was 40 to 200 nM.

As to `CC(C)(O)c1sc(S(N)(=O)=NC(=O)Nc2c3c(nc4c2CCC42CC2)CCC3)cc1F` (centres unmarked) [Compound 614, 4-Fluoro-5-(2-hydroxypropan-2-yl)-N′-((1′,5′,6′,7′-tetrahydro-2′H-spiro[cyclopropane-1,3′-dicyclopenta[b,e]pyridin]-8′-yl)carbamoyl)thiophene-2-sulfonimidamide], under setting [3], the IC50 is 200 to 1000 nM. The same measure, in the same setting: for `Cc1c(C2CC2)nc2c(c1NC(=O)N=S(N)(=O)c1cnn3c1OCCC3)CCC2` (single isomer, unassigned) [Compound 306b, (R) or (S)-N′-((2-cyclopropyl-3-methyl-6,7-dihydro-5H-cyclopenta[b]pyridin-4-yl)carbamoyl)-6,7-dihydro-5H-pyrazolo[5,1-b][1,3] oxazine-3-sulfonimidamide] the value was 5000 to 30000 nM. As to `COC(C)(C)c1nc(CO)c(S(N)(=O)=NC(=O)Nc2c3c(nc4c2CCC4(C)C)CCC3)s1` (single isomer, unassigned) [Compound 648b, (S) or (R)-N′-((3,3-dimethyl-1,2,3,5,6,7-hexahydrodicyclopenta [b,e]pyridin-8-yl)carbamoyl)-4-(hydroxymethyl)-2-(2-methoxypropan-2-yl)thiazole-5-sulfonimidamide], under setting [6], the IC50 is above 30000 nM. Turning to `Cc1c(C2CC2)nc2c(c1NC(=O)N=S(N)(=O)c1cnn3c1OCCC3)CCC2` (single isomer, unassigned) [Compound 306a, (S) or (R)-N′-((2-cyclopropyl-3-methyl-6,7-dihydro-5H-cyclopenta[b]pyridin-4-yl)carbamoyl)-6,7-dihydro-5H-pyrazolo[5,1-b] [1,3]oxazine-3-sulfonimidamide], the IC50 under setting [2] was in the range of 5000 to 30000 nM. As for `CCn1cc(F)c(S(N)(=O)=NC(=O)Nc2c3c(nc4c2CCC42CC2)CCC3)n1` (single isomer, unassigned) [Example 672, (S) or (R)-1-ethyl-4-fluoro-N′-((1′,5′,6′,7′-tetrahydro-2′H-spiro[cyclopropane-1,3'-dicyclopenta[b,e]pyridin]-8′-yl)carbamoyl)-1H-pyrazole-3-sulfonimidamide], the IC50 under setting [1] was in the range of 1000 to 5000 nM. Regarding `NS(=O)(=NC(=O)Nc1c2c(nc3c1CCC31CC1)CCC2)c1nn(C(F)F)cc1F` (centres unmarked) [Compound 719], under setting [3], the IC50 lay in the range of 200 to 1000 nM. For the compound `Cc1c(C(F)(F)F)nc2c(c1NC(=O)N=S(N)(=O)c1cc(C(C)(C)O)cs1)CCC2` (single isomer, unassigned) [Compound 624a, (S) or (R)-4-(2-Hydroxypropan-2-yl)-N′-((3-methyl-2-(trifluoromethyl)-6,7-dihydro-5H-cyclopenta[b]pyridin-4-yl)carbamoyl) thiophene-2-sulfonimidamide], the IC50 under setting [2] lay in the range of 1000 to 5000 nM. `CC1CCc2c1nc1c(c2NC(=O)N=S(N)(=O)c2cnn(C(C)C)c2)CCC1` (single isomer, unassigned) [Compound 171a, (S, R) and (S, S) or (R, S) and (R, R)-1-Isopropyl-N′-((3-methyl-1,2,3,5,6,7-hexahydrodicyclopenta [b,e]pyridin-8-yl)carbamoyl)-1H-pyrazole-4-sulfonimidamide]: under setting [6], the IC50 was above 30000 nM.

As to `CC(C)(O)c1cc(S(N)(=O)=NC(=O)Nc2c3c(nc4c2CCC4(C)C)CCC3)nn1-c1ccccc1` (single isomer, unassigned) [Compound 663b, (R) or (S)-N′-((3,3-dimethyl-1,2,3,5,6,7-hexahydrodicyclopenta [b,e]pyridin-8-yl)carbamoyl)-5-(2-hydroxypropan-2-yl)-1-phenyl-1H-pyrazole-3-sulfonimidamide], the IC50 under setting [3] was 1000 to 5000 nM. For `Cc1nc2c(c(NC(=O)N=[S@@](N)(=O)c3cnc(C(C)(C)O)s3)c1C1CC1)CCC2` [Compound 738], the IC50 under setting [6] was above 30000 nM.

As to `CC(C)(O)c1cc(F)c(S(N)(=O)=NC(=O)Nc2c3c(nc4c2CCC4(C)C)CCC3)s1` (centres unmarked) [Compound 102, N′-((3,3-dimethyl-1,2,3,5,6,7-hexahydrodicyclopenta[b,e]pyridin-8-yl)carbamoyl)-3-fluoro-5-(2-hydroxypropan-2-yl)thiophene-2-sulfonimidamide], the IC50 under setting [4] fell in the range of 40 to 200 nM. As for `CCn1ccc([S@@](N)(=O)=NC(=O)Nc2c3c(nc(C4CC4)c2C2CC2)CCC3)n1` [Compound 726a], the IC50 under setting [6] was above 30000 nM. As to `CC1CCc2c1nc1c(c2NC(=O)N=S(N)(=O)c2cc(C(C)(C)O)cs2)CCC1C` [Compound 131aab, (R,R,S) and (R,S,R)-N′-((3,5-dimethyl-1,2,3,5,6,7-hexa-hydrodicyclo-penta[b,e]pyridin-8-yl)carbamoyl)-4-(2-hydroxypropan-2-yl)thiophene-2-sulfonimidamide], under setting [7], the IC50 was 200 to 1000 nM.

For `CC(C)(O)c1sc(S(N)(=O)=NC(=O)Nc2c3c(nc4c2CCC4(C)C)CCC3)cc1F` (single isomer, unassigned) [Compound 613a, (R) or (S)-N′-((3,3-dimethyl-1,2,3,5,6,7-hexahydrodicyclopenta [b,e]pyridin-8-yl)carbamoyl)-4-fluoro-5-(2-hydroxypropan-2-yl)thiophene-2-sulfonimidamide], under setting [2], the IC50 was in the range of 40 to 200 nM. On to `Cc1c(C(F)(F)F)nc2c(c1NC(=O)N=S(N)(=O)c1nn(-c3ccccc3)cc1F)CCC2` (centres unmarked) [Example 749, 4-Fluoro-N′-((3-methyl-2-(trifluoromethyl)-6,7-dihydro-5H-cyclopenta[b]pyridin-4-yl)carbamoyl)-1-phenyl-1H-pyrazole-3-sulfonimidamide], for which the IC50 (Homo sapiens, THP-1, Table B4, class symbols, read-out: hTHP-1 IC50) lay within 1000 to 5000 nM. On to `CC1CCc2c1nc1c(c2NC(=O)N=S(N)(=O)c2cc(C(C)(C)O)cs2)CCC1C` (centres unmarked) [131f^], for which, under setting [7], the IC50 was in the range of 1000 to 5000 nM.

In the case of `CCC1CCc2c1nc1c(c2NC(=O)N=S(N)(=O)c2sc(C(C)(C)O)cc2F)CCC1` (single isomer, unassigned) [Compound 671b, (S, R) or (S, S) or (R, S) or (R, R)-N′-((3-ethyl-1,2,3,5,6,7-hexahydrodicyclopenta [b,e]pyridin-8-yl)carbamoyl)-3-fluoro-5-(2-hydroxypropan-2-yl) thiophene-2-sulfonimidamide], under setting [2], the IC50 is 5000 to 30000 nM. Regarding `Cc1nc2c(c(NC(=O)N=S(N)(=O)c3cc(C(C)(C)O)cs3)c1C(C)C)CCC2` (single isomer, unassigned) [Compound 622b, (R) or (S)-4-(2-Hydroxypropan-2-yl)-N′-((3-isopropyl-2-methyl-6,7-dihydro-5H-cyclopenta[b]pyridin-4-yl)carbamoyl) thiophene-2-sulfonimidamide], under setting [3], the IC50 was 5000 to 30000 nM.
